Patent US20250134858A1, “COMPOSITIONS AND METHODS FOR TREATMENT OF NAFLD AND NASH AND RELATED DYSLIPIDEMIAS” (EpicentRx, Inc., priority 2022, published 2025)

Experiments:
Format in all cases: in vivo, rat
[1] = tested on: Sprague-Dawley rats fed high-fat atherogenic diet (HFD); test: Relative LDL, HDL, TG and TC levels in rats fed a high-fat atherogenic diet
Protocol: (§1) Sprague-Dawley rats (6-weeks-old male weighing about 180 grams) were randomly divided into three groups. The first group of the rats were subjected to a normal diet (ND) for a time period of 12 weeks. The second and the third group of the rats were subjected to a high-fat atherogenic diet (HFD, 40 kcal % fat, 1.25% cholesterol, 0.5% sodium cholate) for the time period of 12 weeks. The third HFD group of the rats were treated with about 5 mg/kg of RRx-001 every other week for the last 8 weeks before characterization (“HFD-RRx-001”). Several markers of inflammation and steatosis were evaluated.

[2] = tested on: Sprague-Dawley rats fed high-fat atherogenic diet (HFD); test: NASH markers in HFD rats: hepatic TG, hepatic TC, steatosis score, serum ALT and AST; details: about 5 mg/kg every other week for last 8 of 12 weeks
Protocol: as §1
(§2) In a trial that tested for markers related to NASH, every other week administrations of RRx-001 reduced hepatic steatosis scores, serum ALT and AST levels, and hepatic levels of cholesterol and triglycerides in rats fed the HFD.

NLRP3 inflammasome = test: Serum NLRP3, IL-1β and caspase-1 levels (ELISA) in HFD rats; details: about 5 mg/kg every other week for last 8 of 12 weeks
Protocol: as §1, §2

O=C(CBr)N1CC([N+](=O)[O-])([N+](=O)[O-])C1 [RRx-001, 2-bromo-1-(3,3-dinitroazetidin-1-yl)ethan-1-one]
relative amount of LDL ([1]; about 5 mg/kg RRx-001 every other week for last 8 of 12 weeks, ND normalized to 1.0, HFD alone approximately 6, FIG. 1A): approximately 4 times the LDL amount of the ND rats | relative amount of HDL ([1]; about 5 mg/kg every other week for last 8 of 12 weeks, ND normalized to 1, HFD alone approximately 0.2, FIG. 1B): approximately 0.4 relative to the ND rats | relative amount of total cholesterol (TC) ([1]; about 5 mg/kg every other week for last 8 of 12 weeks, ND normalized to 1, HFD alone approximately 2.7, FIG. 1D): approximately 1.8 times relative to the ND rats | relative amount of triglycerides (TG) ([1]; about 5 mg/kg every other week for last 8 of 12 weeks, ND normalized to 1, HFD alone approximately 6.2, FIG. 1C): approximately 4.4 relative to the ND rats | relative amount of hepatic TC ([2]; ND normalized to 1, HFD alone approximately 4.3, FIG. 3B): approximately 3.8 times relative to the ND rats | relative amount of hepatic TGs ([2]; ND normalized to 1, HFD alone approximately 8.2, FIG. 3A): approximately 5.7 times relative to the amounts of the ND rats | relative amount of IL-1β (NLRP3 inflammasome; ND normalized to 1, HFD alone approximately 1.7, FIG. 5B): approximately 1.2 times relative to the amount in the ND rats | relative amount of serum NLRP3 (NLRP3 inflammasome; ND normalized to 1, HFD alone approximately 1.75, FIG. 5A): approximately 1.3 times relative to the rats that were fed the ND | relative amount of caspase-1 (NLRP3 inflammasome; ND normalized to 1, HFD alone approximately 2.0, FIG. 5C): approximately 1.3 times relative to the rats that were fed the ND
